≈ marks a conversion by molar mass, not a printed value. Bridge positions count the residues as written; N and C are the ends. Square brackets hold non-standard residues; d marks the D form. Peptide text beside a SMILES is read from it. * marks the point of attachment. X1 = CC[C@H](C)CCCCC(=O)*; Dab = NCC[C@H](N)C(=O)O
Experiments:
Pseudomonas aeruginosa [1] = experiment: Antibacterial activity against polymyxin-susceptible Pseudomonas aeruginosa ATCC 27853 clinical isolates assessed as reduction in bacterial growth by broth microdilution method; assay type: functional
Enterobacter cloacae [2] = experiment: Antibacterial activity against polymyxin-susceptible Enterobacter cloacae FADD1-EC006 clinical isolates assessed as reduction in bacterial growth by broth microdilution method; assay type: functional
Acinetobacter baumannii [3] = experiment: Antibacterial activity against Carbapenem-resistant Acinetobacter baumannii FADD1-AB034 clinical isolates assessed as reduction in bacterial growth by broth microdilution method; assay type: functional
Klebsiella pneumoniae [4] = experiment: Antibacterial activity against Carbapenem-resistant Klebsiella pneumoniae FADD1-KP032 clinical isolates assessed as reduction in bacterial growth by broth microdilution method; assay type: functional
Klebsiella pneumoniae [5] = experiment: Antibacterial activity against Carbapenem-resistant Klebsiella pneumoniae FADD1-KP065 clinical isolates assessed as reduction in bacterial growth by broth microdilution method; assay type: functional
Acinetobacter baumannii [6] = experiment: Antibacterial activity against Carbapenem-resistant Acinetobacter baumannii FADD1-AB030 clinical isolates assessed as reduction in bacterial growth by broth microdilution method; assay type: functional
Enterobacter cloacae [7] = experiment: Antibacterial activity against polymyxin-susceptible Enterobacter cloacae FADD1-EC001 clinical isolates assessed as reduction in bacterial growth by broth microdilution method; assay type: functional
Acinetobacter baumannii [8] = experiment: Antibacterial activity against polymyxin-susceptible Acinetobacter baumannii ATCC 17978 clinical isolates assessed as reduction in bacterial growth by broth microdilution method; assay type: functional
Acinetobacter baumannii [9] = experiment: Antibacterial activity against polymyxin-susceptible Acinetobacter baumannii ATCC 19606 clinical isolates assessed as reduction in bacterial growth by broth microdilution method; assay type: functional
Pseudomonas aeruginosa [10] = experiment: Antibacterial activity against Carbapenem-resistant Pseudomonas aeruginosa FADD1-PA022 clinical isolates assessed as reduction in bacterial growth by broth microdilution method; assay type: functional
Klebsiella pneumoniae [11] = experiment: Antibacterial activity against Carbapenem-resistant Klebsiella pneumoniae BM1 clinical isolates assessed as reduction in bacterial growth by broth microdilution method; assay type: functional
[12] = Acute toxicity in Swiss mouse assessed as maximum tolerated dose administered intravenously measured over 24 hrs; settings: in vivo, route iv
Enterobacter cloacae [13] = experiment: Antibacterial activity against polymyxin-susceptible Enterobacter cloacae FADD1-EC003 clinical isolates assessed as reduction in bacterial growth by broth microdilution method; assay type: functional
Klebsiella pneumoniae [14] = experiment: Antibacterial activity against Carbapenem-resistant Klebsiella pneumoniae FADD1-KP022 clinical isolates assessed as reduction in bacterial growth by broth microdilution method; assay type: functional
Klebsiella pneumoniae [15] = experiment: Antibacterial activity against polymyxin-susceptible Klebsiella pneumoniae ATCC 700721 clinical isolates assessed as reduction in bacterial growth by broth microdilution method; assay type: functional
Pseudomonas aeruginosa [16] = experiment: Antibacterial activity against polymyxin-susceptible Pseudomonas aeruginosa FADD1-PA038 clinical isolates assessed as reduction in bacterial growth by broth microdilution method; assay type: functional
Pseudomonas aeruginosa [17] = experiment: Antibacterial activity against Carbapenem-resistant Pseudomonas aeruginosa FADD1-PA001 clinical isolates assessed as reduction in bacterial growth by broth microdilution method; assay type: functional
Pseudomonas aeruginosa [18] = experiment: Antibacterial activity against polymyxin-susceptible Pseudomonas aeruginosa FADD1-PA025 clinical isolates assessed as reduction in bacterial growth by broth microdilution method; assay type: functional
[19] = Nephrotoxicity in Swiss mouse assessed as histopathological changes in kidney by measuring semiquantitative score at 12 mg/kg, sc administered as free base every 2 hrs for 6 doses and measured at 20 hrs; assay type: toxicity, organism-based; settings: in vivo

Row | SMILES | MIC (Pseudomonas aeruginosa [1]) | MIC (Enterobacter cloacae [2]) | MIC (Acinetobacter baumannii [3]) | MIC (Klebsiella pneumoniae [4]) | MIC (Klebsiella pneumoniae [5]) | MIC (Acinetobacter baumannii [6]) | MIC (Enterobacter cloacae [7]) | MIC (Acinetobacter baumannii [8]) | MIC (Acinetobacter baumannii [9]) | MIC (Pseudomonas aeruginosa [10]) | MIC (Klebsiella pneumoniae [11]) | MTD at 24 h [12] | MIC (Enterobacter cloacae [13]) | MIC (Klebsiella pneumoniae [14]) | MIC (Klebsiella pneumoniae [15]) | MIC (Pseudomonas aeruginosa [16]) | MIC (Pseudomonas aeruginosa [17]) | MIC (Pseudomonas aeruginosa [18]) | Activity [19]
1 | CC[C@H](C)CCCCC(=O)N[C@@H](CCN)C(=O)N[C@H](C(=O)N[C@@H](CCN)C(=O)N[C@H]1CCNC(=O)[C@H]([C@@H](C)O)NC(=O)[C@H](CCN)NC(=O)[C@H](CCN)NC(=O)[C@H](CC(C)C)NC(=O)[C@@H](Cc2ccccc2)NC(=O)[C@H](CCN)NC1=O)[C@@H](C)O | 1 mg/L (≈ 0.831 µM) | 0.5 mg/L (≈ 0.415 µM) | 1 mg/L (≈ 0.831 µM) | 0.25 mg/L (≈ 0.208 µM) | 0.5 mg/L (≈ 0.415 µM) | 1 mg/L (≈ 0.831 µM) | 0.5 mg/L (≈ 0.415 µM) | 1 mg/L (≈ 0.831 µM) | 1 mg/L (≈ 0.831 µM) | 2 mg/L (≈ 1.66 µM) | 0.5 mg/L (≈ 0.415 µM) | 4 mg/kg | 0.5 mg/L (≈ 0.415 µM) | 0.25 mg/L (≈ 0.208 µM) | 1 mg/L (≈ 0.831 µM) | 4 mg/L (≈ 3.32 µM) | 2 mg/L (≈ 1.66 µM) | 4 mg/L (≈ 3.32 µM) | 
2 | CC[C@H](C)CCCCC(=O)N[C@@H](CCN)C(=O)N[C@H](C(=O)N[C@@H](CCN)C(=O)N[C@H]1CCNC(=O)[C@H](C)NC(=O)[C@H](CCN)NC(=O)[C@H](CCN)NC(=O)[C@H](CC(C)C)NC(=O)[C@@H](Cc2ccccc2)NC(=O)[C@H](CCN)NC1=O)[C@@H](C)O | 1 mg/L (≈ 0.852 µM) | 4 mg/L (≈ 3.41 µM) | 1 mg/L (≈ 0.852 µM) | 1 mg/L (≈ 0.852 µM) | 0.5 mg/L (≈ 0.426 µM) | 1 mg/L (≈ 0.852 µM) | 2 mg/L (≈ 1.7 µM) | 1 mg/L (≈ 0.852 µM) | 1 mg/L (≈ 0.852 µM) | 1 mg/L (≈ 0.852 µM) | 2 mg/L (≈ 1.7 µM) | 2.7 mg/kg | 1 mg/L (≈ 0.852 µM) | 0.5 mg/L (≈ 0.426 µM) | 4 mg/L (≈ 3.41 µM) | 8 mg/L (≈ 6.82 µM) | 1 mg/L (≈ 0.852 µM) | 1 mg/L (≈ 0.852 µM) | 0
3 | CC[C@H](C)CCCCC(=O)N[C@@H](CCN)C(=O)N[C@H](C(=O)N[C@@H](CCN)C(=O)N[C@H]1CCNC(=O)[C@H]([C@H](C)O)NC(=O)[C@H](CCN)NC(=O)[C@H](CCN)NC(=O)[C@H](CC(C)C)NC(=O)[C@@H](Cc2ccccc2)NC(=O)[C@H](CCN)NC1=O)[C@@H](C)O | 1 mg/L (≈ 0.831 µM) | 8 mg/L (≈ 6.65 µM) | 2 mg/L (≈ 1.66 µM) | 2 mg/L (≈ 1.66 µM) | 0.5 mg/L (≈ 0.415 µM) | 2 mg/L (≈ 1.66 µM) | 2 mg/L (≈ 1.66 µM) | 4 mg/L (≈ 3.32 µM) | 8 mg/L (≈ 6.65 µM) | 1 mg/L (≈ 0.831 µM) | 1 mg/L (≈ 0.831 µM) | 4.1 mg/kg | 1 mg/L (≈ 0.831 µM) | 0.25 mg/L (≈ 0.208 µM) | 1 mg/L (≈ 0.831 µM) | 4 mg/L (≈ 3.32 µM) | 1 mg/L (≈ 0.831 µM) | 2 mg/L (≈ 1.66 µM) | 0
4 | CC[C@H](C)CCCCC(=O)N[C@@H](CCN)C(=O)N[C@H](C(=O)N[C@@H](CCN)C(=O)N[C@H]1CCNC(=O)[C@H](CO)NC(=O)[C@H](CCN)NC(=O)[C@H](CCN)NC(=O)[C@H](CC(C)C)NC(=O)[C@@H](Cc2ccccc2)NC(=O)[C@H](CCN)NC1=O)[C@@H](C)O | 0.5 mg/L (≈ 0.42 µM) | 0.5 mg/L (≈ 0.42 µM) | 1 mg/L (≈ 0.841 µM) | 0.25 mg/L (≈ 0.21 µM) | 0.25 mg/L (≈ 0.21 µM) | 1 mg/L (≈ 0.841 µM) | 0.5 mg/L (≈ 0.42 µM) | 1 mg/L (≈ 0.841 µM) | 2 mg/L (≈ 1.68 µM) | 0.5 mg/L (≈ 0.42 µM) | 0.25 mg/L (≈ 0.21 µM) | 4.1 mg/kg | 0.25 mg/L (≈ 0.21 µM) | < 0.125 mg/L | 0.5 mg/L (≈ 0.42 µM) | 1 mg/L (≈ 0.841 µM) | 0.5 mg/L (≈ 0.42 µM) | 2 mg/L (≈ 1.68 µM) | 
5 | CC[C@H](C)CCCCC(=O)N[C@@H](CCN)C(=O)N[C@H](C(=O)N[C@@H](CCN)C(=O)N[C@H]1CCNC(=O)[C@H](CC)NC(=O)[C@H](CCN)NC(=O)[C@H](CCN)NC(=O)[C@H](CC(C)C)NC(=O)[C@@H](Cc2ccccc2)NC(=O)[C@H](CCN)NC1=O)[C@@H](C)O | 1 mg/L (≈ 0.842 µM) | 4 mg/L (≈ 3.37 µM) | 2 mg/L (≈ 1.68 µM) | 1 mg/L (≈ 0.842 µM) | 0.5 mg/L (≈ 0.421 µM) | 1 mg/L (≈ 0.842 µM) | 2 mg/L (≈ 1.68 µM) | 2 mg/L (≈ 1.68 µM) | 2 mg/L (≈ 1.68 µM) | 1 mg/L (≈ 0.842 µM) | 0.5 mg/L (≈ 0.421 µM) | 4.1 mg/kg | 1 mg/L (≈ 0.842 µM) | 0.25 mg/L (≈ 0.211 µM) | 4 mg/L (≈ 3.37 µM) | 2 mg/L (≈ 1.68 µM) | 1 mg/L (≈ 0.842 µM) | 1 mg/L (≈ 0.842 µM) | 0
6 | CCC[C@@H]1NC(=O)[C@H](CCN)NC(=O)[C@H](CCN)NC(=O)[C@H](CC(C)C)NC(=O)[C@@H](Cc2ccccc2)NC(=O)[C@H](CCN)NC(=O)[C@@H](NC(=O)[C@H](CCN)NC(=O)[C@@H](NC(=O)[C@H](CCN)NC(=O)CCCC[C@@H](C)CC)[C@@H](C)O)CCNC1=O | 1 mg/L (≈ 0.832 µM) | 2 mg/L (≈ 1.66 µM) | 4 mg/L (≈ 3.33 µM) | 1 mg/L (≈ 0.832 µM) | 0.5 mg/L (≈ 0.416 µM) | 0.5 mg/L (≈ 0.416 µM) | 2 mg/L (≈ 1.66 µM) | 4 mg/L (≈ 3.33 µM) | 4 mg/L (≈ 3.33 µM) | 1 mg/L (≈ 0.832 µM) | 1 mg/L (≈ 0.832 µM) | 4.1 mg/kg | 2 mg/L (≈ 1.66 µM) | 0.5 mg/L (≈ 0.416 µM) | 2 mg/L (≈ 1.66 µM) | 2 mg/L (≈ 1.66 µM) | 1 mg/L (≈ 0.832 µM) | 2 mg/L (≈ 1.66 µM) | 0
7 | CC[C@H](C)CCCCC(=O)N[C@@H](CCN)C(=O)N[C@H](C(=O)N[C@@H](CCN)C(=O)N[C@H]1CCNC(=O)[C@H](CC(C)C)NC(=O)[C@H](CCN)NC(=O)[C@H](CCN)NC(=O)[C@H](CC(C)C)NC(=O)[C@@H](Cc2ccccc2)NC(=O)[C@H](CCN)NC1=O)[C@@H](C)O (X1-[Dab]T[Dab][Dab][Dab][dF]L[Dab][Dab]L; lactam 4-C) | 2 mg/L (≈ 1.65 µM) | 4 mg/L (≈ 3.29 µM) | 8 mg/L (≈ 6.58 µM) | 4 mg/L (≈ 3.29 µM) | 0.5 mg/L (≈ 0.411 µM) | 1 mg/L (≈ 0.823 µM) | 2 mg/L (≈ 1.65 µM) | 2 mg/L (≈ 1.65 µM) | 16 mg/L (≈ 13.2 µM) | 1 mg/L (≈ 0.823 µM) | 2 mg/L (≈ 1.65 µM) | 6.1 mg/kg | 4 mg/L (≈ 3.29 µM) | 0.25 mg/L (≈ 0.206 µM) | 4 mg/L (≈ 3.29 µM) | 2 mg/L (≈ 1.65 µM) | 1 mg/L (≈ 0.823 µM) | 2 mg/L (≈ 1.65 µM) | 

From ChEMBL document CHEMBL5316337, “Critical Role of Position 10 Residue in the Polymyxin Antimicrobial Activity” (J Med Chem, 2023)
